Patent publication US20090192135A1, “Human Niemann Pick C1-Like 1 Gene (NPC1L1) Polymorphisms and Methods of Use Thereof” (SCHERING CORPORATION, priority 2005, published 2009)

Target: T1, NPC1L1 (Homo sapiens, UniProt Q9UHC9)
T1 construct: from tissue; host or cells: small intestine of hypercholesterolemic patients (in vivo, clinical trial)
T1 sequence (Q9UHC9 22-1332 isoform Q9UHC9-2 limits assumed): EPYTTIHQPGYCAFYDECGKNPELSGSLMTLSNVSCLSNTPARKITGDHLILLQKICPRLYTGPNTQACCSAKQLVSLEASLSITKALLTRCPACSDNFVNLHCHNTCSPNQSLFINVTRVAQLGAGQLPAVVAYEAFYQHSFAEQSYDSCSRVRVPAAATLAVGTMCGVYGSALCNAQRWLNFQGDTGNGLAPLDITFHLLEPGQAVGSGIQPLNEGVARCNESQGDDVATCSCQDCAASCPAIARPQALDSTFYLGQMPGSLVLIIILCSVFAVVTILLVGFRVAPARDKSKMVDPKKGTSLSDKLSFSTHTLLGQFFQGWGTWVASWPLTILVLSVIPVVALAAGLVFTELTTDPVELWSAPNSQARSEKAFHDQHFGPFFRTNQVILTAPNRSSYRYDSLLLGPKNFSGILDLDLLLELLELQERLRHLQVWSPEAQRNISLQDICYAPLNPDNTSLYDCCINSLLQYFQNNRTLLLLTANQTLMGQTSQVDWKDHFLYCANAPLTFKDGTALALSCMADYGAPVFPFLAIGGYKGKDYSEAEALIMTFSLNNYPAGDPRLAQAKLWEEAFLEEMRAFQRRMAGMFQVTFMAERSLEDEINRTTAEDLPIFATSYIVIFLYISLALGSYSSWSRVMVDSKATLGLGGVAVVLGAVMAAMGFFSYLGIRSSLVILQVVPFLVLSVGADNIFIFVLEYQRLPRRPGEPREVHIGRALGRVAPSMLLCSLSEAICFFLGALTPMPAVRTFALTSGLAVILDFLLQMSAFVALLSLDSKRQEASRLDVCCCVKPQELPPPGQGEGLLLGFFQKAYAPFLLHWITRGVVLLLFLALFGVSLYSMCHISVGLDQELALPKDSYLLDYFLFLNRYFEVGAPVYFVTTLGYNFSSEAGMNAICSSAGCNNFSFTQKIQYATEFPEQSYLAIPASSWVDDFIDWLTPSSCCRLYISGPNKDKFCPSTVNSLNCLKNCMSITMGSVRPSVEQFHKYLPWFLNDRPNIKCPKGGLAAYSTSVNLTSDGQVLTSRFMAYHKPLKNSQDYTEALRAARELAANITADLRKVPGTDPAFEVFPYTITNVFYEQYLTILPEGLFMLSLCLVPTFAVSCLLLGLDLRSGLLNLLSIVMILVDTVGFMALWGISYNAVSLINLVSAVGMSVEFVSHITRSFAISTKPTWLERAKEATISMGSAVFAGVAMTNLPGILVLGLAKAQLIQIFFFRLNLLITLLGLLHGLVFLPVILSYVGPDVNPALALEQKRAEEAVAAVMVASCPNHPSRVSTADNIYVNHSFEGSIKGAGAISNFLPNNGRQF
Test: EASE trial: LDL-C response to six weeks of ezetimibe 10 mg/day added to stable statin therapy, analysed by NPC1L1 genotype/haplotype
Format: in vivo
Settings: for Least-Squares (adjusted) Mean (n,/Stderr), percent change in LDL-C: Extreme responders N = 239; for Odds Ratio, extreme responder association with SNP: g.-18C > A; for Adjusted Least Squares Mean, LDL-C response: extreme responder data set
Experimental: Genotyping assays were developed for a number of novel and known common variants with minor allele frequencies greater than 4% that were identified in Example 1. Genetic association analysis was performed with these SNPs in a clinical trial cohort (EASE), described below, to assess whether DNA sequence variants in NPC1L1 are associated with changes in the levels of a variety of plasma cholesterol components in hypercholesterolemia patients in response to pharmacotherapy with ezetimibe and statins as compared to patients treated with a statin and placebo.
To study whether variations in NPC1L1 were associated with response to ezetimibe added to statin therapy, a study population was derived from the Ezetimibe Add-On to Statin for Effectiveness (EASE) Trial (Pearson et al., (2005) Mayo Clinic Proceedings, In Press). The EASE trial was a community-based, randomized, double-blind, placebo controlled study to evaluate the effects of six weeks of ezetimibe, 10 mg/day, added on to a stable regimen of statin therapy, on lipid biomarkers in hypercholesterolemic patients whose LDL-C levels exceeded the National Cholesterol Education Program (NCEP) Adult Treatment Panel (ATP) m guidelines for their coronary heart disease (CHD) risk category. At enrollment, patients taking a stable dose of statin (any dose, any brand) and following a NCEP Step 1 diet or similar cholesterol-lowering diet for at least six weeks prior to entry into the study were randomized to either the ezetimibe (n=2020, 2009 received the treatment) or placebo (n=1010, 1009 received the treatment) arm. From the ezetimibe group, 1208 patients provided consent for genomic analysis and were included in this study. A series of clinical measures corresponding to various cardiovascular risk factors were measured from samples obtained from all trial participants and are summarized by Pearson et al., supra.
Twenty one SNPs from Table 4 (Example 1) were converted to valid genotyping assays, thirteen of which had allele frequencies greater than 2% in all EASE sub-populations. TaqMan Allelic Discrimination assays (Livak, (1999) Genet. Anal. 14:143-49) were performed using Primer Express software and the Assay-by-Design service offered by Applied Biosystems (Foster City, Calif.). […] All probe/primer sets were designed to function using universal reaction and cycling conditions.
The twenty one selected SNPs were genotyped in 1,208 individuals participating in the ezetimibe+statin treatment arm of the EASE trial. A series of clinical measures corresponding to various cardiovascular risk factors were taken on all trial participants (Tables 4a-d). Thirteen selected SNPs genotyped in the EASE cohort were confirmed as having common allele frequencies in this cohort, i.e., an allele frequency of greater than 2% in all EASE sub-populations. […] This could reflect the increased power in the larger EASE cohort to make such detections (see Table 5).
The mean (SD) for total plasma cholesterol, HDL cholesterol (HDL-C), and LDL cholesterol (LDL-C) was 211.0 (34.9), 48.6 (11.5), and 129.1 (30.0) mg/dL, respectively (Pearson et al., supra). […] The distribution of these measurements was similar in the subjects enrolled in this genetic study (Pearson et al., supra). […] No significant associations were found between these response predictive variables and any of the tagging SNPs.
Genetic association analysis was carried out in the EASE cohort with LDL-C response to ezetimibe treatment considered as the primary outcome variable. Individual SNPs, haplotypes, and haplotype combinations were the principal explanatory variables used in the analyses. General linear models were used to estimate the effects of genotypes, haplotypes, and diplotypes on the LDL-C response phenotype. Baseline LDL-C levels, sex, age, and race were investigated to determine if they gave rise to significant effects. Baseline LDL-C levels associated with significant effects in all models and were therefore included in all analyses. […]

## O=C1[C@H](CC[C@H](O)c2ccc(F)cc2)[C@@H](c2ccc(O)cc2)N1c1ccc(F)cc1 [ezetimibe, 1-(4-fluorophenyl)-3(R)-[3-(4-fluorophenyl)-3(S)-hydroxypropyl]-4(S)-(4-hydroxyphenyl)-2-azetidinone]
g.1679C > G C/C
  Least-Squares (adjusted) Mean (n,/Stderr), percent change in LDL-C: C/C: −17.49 (143/2.71) %
g.1679C > G C/G
  Least-Squares (adjusted) Mean (n,/Stderr), percent change in LDL-C: C/G: −25.16 (85/3.51) %
g.1679C > G G/G
  Least-Squares (adjusted) Mean (n,/Stderr), percent change in LDL-C: G/G: −40.93 (11/9.76) %
Baseline LDL-C as covariate table, extreme responders N = 239, CI (1.59, 5.44)
  Odds Ratio, extreme responder association with SNP: Odds Ratio = 2.94-
Baseline LDL-C as covariate, extreme responders N = 239, g.-18C > A C/C
  Least-Squares (adjusted) Mean, percent change in LDL-C: C/C: −17.8%
Baseline LDL-C as covariate, g.-18C > A A/A
  Least-Squares (adjusted Mean), percent change from baseline LDL-C: −26.5%
Baseline LDL-C as covariate, g.-18C > A C/A
  Least-Squares (adjusted Mean), percent change from baseline LDL-C: −27.9%
Baseline LDL-C as covariate, g.-18C > A C/C
  Least-Squares (adjusted Mean), percent change from baseline LDL-C: −24.2%
Baseline LDL-C as covariate, g.-133A > G A/A
  Least-Squares (adjusted Mean), percent change from baseline LDL-C: −25.9%
Baseline LDL-C as covariate, g.-133A > G A/G
  Least-Squares (adjusted Mean), percent change from baseline LDL-C: −24.8%
Baseline LDL-C as covariate, g.-133A > G G/G
  Least-Squares (adjusted Mean), percent change from baseline LDL-C: −21.9%
Baseline LDL-C as covariate, g.1679C > G C/C
  Least-Squares (adjusted Mean), percent change from baseline LDL-C: −24.5%
Baseline LDL-C as covariate, g.1679C > G C/G
  Least-Squares (adjusted Mean), percent change from baseline LDL-C: −26%
Baseline LDL-C as covariate, g.1679C > G G/G
  Least-Squares (adjusted Mean), percent change from baseline LDL-C: −27.9%
Baseline LDL-C as covariate, g.19224G > A A/A
  Least-Squares (adjusted Mean), percent change from baseline LDL-C: −28.6%
Baseline LDL-C as covariate, g.19224G > A G/A
  Least-Squares (adjusted Mean), percent change from baseline LDL-C: −25.8%
Baseline LDL-C as covariate, g.19224G > A G/G
  Least-Squares (adjusted Mean), percent change from baseline LDL-C: −25%
Baseline LDL-C as covariate, g.19259T > C C/C
  Least-Squares (adjusted Mean), percent change from baseline LDL-C: −26.2%
Baseline LDL-C as covariate, g.19259T > C T/C
  Least-Squares (adjusted Mean), percent change from baseline LDL-C: −25.2%
Baseline LDL-C as covariate, g.19259T > C T/T
  Least-Squares (adjusted Mean), percent change from baseline LDL-C: −25%
Baseline LDL-C as covariate, g.28650A > G A/A
  Least-Squares (adjusted Mean), percent change from baseline LDL-C: −24.3%
Baseline LDL-C as covariate, g.28650A > G A/G
  Least-Squares (adjusted Mean), percent change from baseline LDL-C: −26.6%
Baseline LDL-C as covariate, g.28650A > G G/G
  Least-Squares (adjusted Mean), percent change from baseline LDL-C: −28%
Corresponding to a 15% relative increase in LDL-C reductions
  additional decrease in absolute LDL-C levels: ~5 mg/dL
Diplotype A-A-C / A-C-C
  Adjusted Least Squares Mean, LDL-C response: −38.20%
Diplotype A-A-G / A-C-C
  Adjusted Least Squares Mean, LDL-C response: −34.80%
Diplotype A-A-G / A-C-G
  Adjusted Least Squares Mean, LDL-C response: −40.29%
Diplotype A-A-G / G-C-C
  Adjusted Least Squares Mean, LDL-C response: −29.06%
Diplotype A-C-C / A-C-C
  Adjusted Least Squares Mean, LDL-C response: −21.78%
Diplotype A-C-C / A-C-G
  Adjusted Least Squares Mean, LDL-C response: −4.60%
Diplotype A-C-C / G-C-C
  Adjusted Least Squares Mean, LDL-C response: −14.60%
Diplotype A-C-G / A-C-G
  Adjusted Least Squares Mean, LDL-C response: −41.46%
Diplotype A-C-G / G-C-C
  Adjusted Least Squares Mean, LDL-C response: −24.20%
Diplotype G-C-C / G-C-C
  Adjusted Least Squares Mean, LDL-C response: 3.93%
Diplotype G-C-C / G-C-G
  Adjusted Least Squares Mean, LDL-C response: −66.96%
Extreme responders, 3-SNP haplotype A-A-G, 0 copies (count 181)
  Adjusted Least Squares Mean (stderr), LDL-C response: −17.32 (2.38) %
Extreme responders, 3-SNP haplotype A-A-G, 1 copy (count 58)
  Adjusted Least Squares Mean (stderr), LDL-C response: −33.69 (4.21) %
Extreme responders, 3-SNP haplotype G-C-C, 0 copies (count 139)
  Adjusted Least Squares Mean (stderr), LDL-C response: −24.51 (2.75) %
Extreme responders, 3-SNP haplotype G-C-C, 1 copy (count 92)
  Adjusted Least Squares Mean (stderr), LDL-C response: −18.62 (3.38) %
Extreme responders, 3-SNP haplotype G-C-C, 2 copies (count 8)
  Adjusted Least Squares Mean (stderr), LDL-C response: 3.93 (11.45) %
Extreme responders, g.−18C>A heterozygotes
  mean LDL-C percent response: 33.98%
Extreme responders, g.−18C>A heterozygotes vs homozygous common allele
  increase in efficacy / increased reduction in LDL-C: 100%
Extreme responders, homozygous for the common allele of g.−18C>A (176/239)
  mean LDL-C percent response: 16.8%
Extreme responders N = 239, 95% CI 1.59, 5.44
  Odds Ratio, extreme responder association with SNP: Odds ratio** = 2.94-
g.−18C>A minor allele carriers compared to homozygous major allele, EASE cohort
  increased LDL-C response / greater reduction in LDL-C: 15%
